{"source": "paper PMC9501129", "about": "(Pharmaceutics, 2022)", "key": {"[1]": {"assay": "Amniotic fluid drug concentration in mouse pregnancy model (HPLC-MSMS)", "format": "in vivo, C57BL/6J mice", "settings": "pregnant mice; for Kp at 1 h / concentration at 1 h: female, C57BL/6J, mouse, oral; for Kp at 1 h: amniotic fluid / maternal plasma; for concentration at 1 h: amniotic fluid", "excerpt": "All animal experiments were approved by the University Health Network Animal Use Committee (protocol #2575) and performed according to the policies and guidelines of the Canadian Council on Animal Care. C57BL/6J mice bred in-house (original breeders from Jackson Laboratory RRID:IMSR JAX:000664) were maintained under a 12-h light/dark cycle, with ad libitum access to food and water. Animals were acclimated to their surroundings for 1 week prior to experiment initiation. Males were isolated for 7 days prior to mating. Female mice (7–12 weeks of age) were mated with males at a ratio of 2:1. Presence of vaginal plug was denoted as gestational day 0.5 (GD0.5). Pregnancy was confirmed by weight gain of >1.5 g on GD9.5 and >3 g on GD13.5. […] The equivalent mouse mg/kg dose was calculated based on the human dose divided by an assumed average human weight of 60 kg. […] On GD15.5, mice underwent saphenous bleed 24 h after the GD14.5 dose administration (trough). Immediately after the saphenous bleed, mice were dosed with the appropriate drug regimen and sacrificed 1 h post-treatment (peak), at which time blood was collected by cardiac puncture and amniotic fluid was collected by dissecting the uterus, puncturing the amniotic sac, and draining the amniotic fluid into a sterile dish. Amniotic fluid was pooled for the entire litter. Samples from 2 dams per arm were analyzed for drug levels.\nBriefly, 50 μL of plasma or amniotic fluid was spiked with internal standard (ritonavir-d6) followed by protein precipitation with acetonitrile and filtration. Filtrates were diluted 1:9 with ammonium acetate buffer (10 mM) and analyzed by the HPLC-MSMS system, consisting of a Shimadzu Nexera XR high-performance liquid chromatograph (Shimadzu, Columbia, MD, USA) coupled with a SCIEX API 4500 QqQ mass spectrometer (SCIEX, Concord, ON, Canada). Chromatographic separation by Mobile Phase A (10% methanol, 5% 50 mM ammonium acetate, 85% 0.25% acetic acid pH 3.6 ± 0.2) and Mobile Phase B (90% methanol, 5% 50 mM ammonium acetate, 5% 0.25% acetic acid pH 6.6 ± 0.2) was performed under linear gradient conditions (flow rate 0.7 mL/min) on a reverse-phase Zorbax XDB-C18 column (Agilent Technologies, Santa Clara, CA, USA) maintained at 40 °C. […] HPLC-MSMS data were acquired using Analyst (v 1.6.3, SCIEX, Concord, ON, Canada) and analyzed with MultiQuant software (v 3.0.3, SCIEX, Concord, ON, Canada). […] Positive controls spiked in-house and prepared by an external laboratory during a sample exchange program were included in all runs."}, "pregnant rats [2]": {"tested_on": "pregnant rats", "settings": "gestational day 0 to 17, cited from earlier work"}, "pregnant rats [3]": {"tested_on": "pregnant rats", "settings": "cited from earlier work"}, "[4]": {"settings": "ex-vivo dually perfused human cotyledon; cited from earlier work"}, "[5]": {"settings": "cited from earlier work"}, "[6]": {"settings": "CAB 5 mg/kg (10×) oral gavage once daily GD11.5-GD15.5 with TDF 50 mg/kg + FTC 33.3 mg/kg, mean (SD), n=2"}, "[7]": {"settings": "of 13 pregnant women living with HIV (4 oral CAB, 9 LA CAB)"}}, "note": "Where two headings read alike, the source gives them in different places.", "data": [{"compound": "C[C@H]1CO[C@@H]2Cn3cc(C(=O)NCc4ccc(F)cc4F)c(=O)c(O)c3C(=O)N12", "note": "[CAB, cabotegravir]", "values": [{"measurement": "Kp at 1 h", "setting": "[1]; 1× to 10× CAB, 1 h after dosing, read-out: Ratio of drug in the amniotic fluid to that in maternal plasma", "result": "0.034 to 0.055"}, {"measurement": "Kp at 1 h", "setting": "[1]; CAB 0.5 mg/kg (1×) oral gavage once daily GD11.5-GD15.5 with TDF 50 mg/kg + FTC 33.3 mg/kg, mean (SD), n=2, read-out: Amniotic: Maternal Plasma Ratio 1 h", "result": 0.05}, {"measurement": "Kp at 1 h", "setting": "[1]; CAB 1.5 mg/kg (3×) oral gavage once daily GD11.5-GD15.5 with TDF 50 mg/kg + FTC 33.3 mg/kg, mean (SD), n=2, read-out: Amniotic: Maternal Plasma Ratio 1 h", "result": 0.055}, {"measurement": "Kp at 1 h", "setting": "[1]; CAB 5 mg/kg (10×) oral gavage once daily GD11.5-GD15.5 with TDF 50 mg/kg + FTC 33.3 mg/kg, mean (SD), n=2, read-out: Amniotic: Maternal Plasma Ratio 1 h", "result": 0.034}, {"measurement": "concentration at 1 h", "setting": "[1]; CAB 0.5 mg/kg (1×) oral gavage once daily GD11.5-GD15.5 with TDF 50 mg/kg + FTC 33.3 mg/kg, mean (SD), n=2", "result": 44.9, "unit": "ng/mL"}, {"measurement": "concentration at 1 h", "setting": "[1]; CAB 1.5 mg/kg (3×) oral gavage once daily GD11.5-GD15.5 with TDF 50 mg/kg + FTC 33.3 mg/kg, mean (SD), n=2", "result": 59.9, "unit": "ng/mL"}, {"measurement": "concentration at 1 h", "setting": "[1]; [6]", "result": 112, "unit": "ng/mL"}, {"measurement": "Amniotic Fluid 1 h", "setting": "[1]; [6]", "result": "112.4 (33.6) ng/mL"}, {"measurement": "Fetal viability and fetal malformations", "setting": "pregnant rats [2]; CAB orally 0, 0.5, 5, or 1000 mg/kg/day", "result": "no effects on fetal viability and no drug-related fetal malformations"}, {"measurement": "Fetal body weight", "setting": "pregnant rats [2]; CAB orally 1000 mg/kg/day", "result": "minor decrease in fetal body weight"}, {"measurement": "Reproductive toxicity findings", "setting": "pregnant rats [3]; CAB orally 1000 mg/kg/day, gestational day 6 to lactation day 21", "result": "delayed onset of parturition, increased number of stillbirths, and increased number of neonatal deaths at lactation day 4"}, {"measurement": "CAB exposure relative to the recommended human dose", "setting": "pregnant rats [3]; rats, 1000 mg/kg/day", "result": 28, "unit": "times"}, {"measurement": "Concentration in the fetal compartment", "setting": "[4]", "result": 48, "unit": "ng/mL"}, {"measurement": "Concentration in the maternal compartment", "setting": "[4]", "result": 550, "unit": "ng/mL"}, {"measurement": "Maternal-to-fetal ratio", "setting": "[4]", "result": 10, "unit": "%"}, {"measurement": "Placental transfer", "setting": "[4]", "result": "low placental transfer"}, {"measurement": "Birth defects", "setting": "[5]; 13 pregnant women living with HIV (4 oral CAB, 9 LA CAB)", "result": "No cases of birth defects were reported"}, {"measurement": "Women with live births", "setting": "[5]; [7]", "result": "Four"}, {"measurement": "Women with miscarriage within the first nine weeks of gestation", "setting": "[5]; [7]", "result": "four"}]}]}
